In ChEMBL document CHEMBL1130977, “5-Aminomethylquinoxaline-2,3-diones. Part II: N-aryl derivatives as novel NMDA/glycine and AMPA antagonists” (Bioorg Med Chem Lett, 1998):

Columns and labels:
[1] = target: Glutamate NMDA receptor (Rattus norvegicus) (UniProt P35439+Q00959+Q00960+Q00961+Q62645+Q8VHN2+Q9R1M7); experiment: Inhibition of [3H]MDL-105519 binding to NMDA receptor glycine binding site; format: protein-complex assay; set-up: concentration or dose not given beside the values; details: concentration not given here
[2] = target: Glutamate receptor ionotropic, AMPA (Rattus norvegicus, UniProt P19490+P19491+P19492+P19493); experiment: Tested for in vitro binding affinity against AMPA receptor using [3H]-AMPA binding assay; format: protein-complex assay
Glutamate NMDA receptor = experiment: Inhibition of [3H]MDL-105,519 binding to NMDA receptor glycine-binding site; format: protein-complex assay, Rattus norvegicus
[3] = target: T1, Glutamate receptor ionotropic, AMPA (Rattus norvegicus) (UniProt P19491+P19492+P19493+P19490); experiment: Tested for in vitro binding affinity against AMPA receptor using [3H]-AMPA binding assay at a concentration of 1 uM; format: protein-complex assay
[4] = target: T1, Glutamate receptor ionotropic, AMPA (Rattus norvegicus); experiment: Tested for in vitro binding affinity against AMPA receptor using [3H]AMPA binding assay; format: protein-complex assay

| inhibition [1] | IC50 [2] | IC50 (Glutamate NMDA receptor) | inhibition [3] | Activity [4] | Structure (SMILES) |
| --- | --- | --- | --- | --- | --- |
| – | 1450 nM | 120 nM | – | – | O=C(O)Cc1csc(NCc2cc(Br)cc3nc(O)c(O)nc23)n1 |
| – | – | 340 nM | 17% | – | CCOC(=O)Cc1csc(NCc2cc(Br)cc3nc(O)c(O)nc23)n1 |
| 0% | 900 nM | – | – | – | O=C(O)c1cccc(NCc2cc([N+](=O)[O-])cc3nc(O)c(O)nc23)c1 |
| 41% | 190 nM | – | – | – | O=[N+]([O-])c1cc(CNc2nccs2)c2nc(O)c(O)nc2c1 |
| 25% | – | – | 0% | – | COC(=O)c1ccccc1NCc1cc(Cl)cc2nc(O)c(O)nc12 |
| 10% | 1600 nM | – | – | – | O=C(O)c1ccc(NCc2cc([N+](=O)[O-])cc3nc(O)c(O)nc23)cc1 |
| 40% | 12000 nM | – | – | – | Oc1nc2cc(Br)cc(CNCc3ccccn3)c2nc1O |
| – | 1800 nM | 410 nM | – | – | CCOC(=O)Cc1csc(NCc2cc([N+](=O)[O-])cc3nc(O)c(O)nc23)n1 |
| – | 2000 nM | 30 nM | – | – | O=C(O)c1ccccc1NCc1cc(Cl)cc2nc(O)c(O)nc12 |

The next lines start with the compound.

| Structure (SMILES) | inhibition [1] | IC50 [2] | IC50 (Glutamate NMDA receptor) | inhibition [3] | Activity [4] |
| --- | --- | --- | --- | --- | --- |
| NC(=O)[C@@H]1CCCC[C@@H]1NCc1cc([N+](=O)[O-])cc2nc(O)c(O)nc12 | 25% | 650 nM | – | – | – |
| O=[N+]([O-])c1cc(CNCc2ccccn2)c2nc(O)c(O)nc2c1 | 40% | 3100 nM | – | – | – |
| O=C(O)c1ccccc1NCc1cc([N+](=O)[O-])cc2nc(O)c(O)nc12 | – | 50 nM | 50 nM | – | – |
| O=[N+]([O-])c1cc(CNc2cccc(F)c2)c2nc(O)c(O)nc2c1 | – | 1400 nM | 720 nM | – | – |
| COC(=O)C1CCCC(NCc2cc([N+](=O)[O-])cc3nc(O)c(O)nc23)C1 (stereo unspecified) | 30% | 1300 nM | – | – | – |
| O=[N+]([O-])c1cc(CNc2ccccc2)c2nc(O)c(O)nc2c1 | – | 1500 nM | 1400 nM | – | – |
| O=[N+]([O-])c1cc(CNCc2ccncc2)c2nc(O)c(O)nc2c1 | 36% | 1400 nM | – | – | – |
| O=C(O)Cc1csc(NCc2cc([N+](=O)[O-])cc3nc(O)c(O)nc23)n1 | – | 180 nM | 120 nM | – | – |
| O=[N+]([O-])c1cc(CNc2ncccn2)c2nc(O)c(O)nc2c1 | 12% | 380 nM | – | – | – |
| O=C(O)C1CCCC(NCc2cc([N+](=O)[O-])cc3nc(O)c(O)nc23)C1 (stereo unspecified) | 21% | 780 nM | – | – | – |
| O=C(O)[C@@H]1CCCC[C@@H]1NCc1cc([N+](=O)[O-])cc2nc(O)c(O)nc12 | 25% | 670 nM | – | – | – |
| O=[N+]([O-])c1cc(CNc2ccc(F)cc2)c2nc(O)c(O)nc2c1 | – | 1200 nM | 750 nM | – | – |
| O=[N+]([O-])c1cc(CN2CCC(O)C2)c2nc(O)c(O)nc2c1 (stereo unspecified) | – | – | – | – | 330 nM |
| O=[N+]([O-])c1cc(CNc2cccnc2)c2nc(O)c(O)nc2c1 | 12% | 970 nM | – | – | – |
| O=[N+]([O-])c1cc(CNc2ccccn2)c2nc(O)c(O)nc2c1 | 0% | 500 nM | – | – | – |
| O=[N+]([O-])c1cc(CNc2ccccc2F)c2nc(O)c(O)nc2c1 | – | 1400 nM | 500 nM | – | – |
| O=[N+]([O-])c1cc(CNc2cnccn2)c2nc(O)c(O)nc2c1 | 59% | 220 nM | – | – | – |
